In patent US9062095B2, “Mutant double cyclized receptor peptides inhibiting β1-adrenoceptor antibodies” (JULIUS-MAXIMILIANS-UNIVERSTITAT-WURZBURG, priority 2007, dated 2015):
Positions of bridges follow the written chain, without caps; N, C: chain ends.

Experiments:
[1] = tested on: anti-beta1-ECII antibody-secreting cells (ASC); assay: ELISPOT-assay with B-cells from bone marrow or spleen of prophylactically treated rats; format: in vivo, rat; conditions: prophylactically treated versus untreated immunized rats, n=3-4 (FIG. 13)
Experimental: Cys/Ser, horizontally hatched columns). For the assays, ELIspot plates were coated overnight with the specific antigen (GST/beta1-ECII-FP) in 0.05 mol/1 Tris buffer, pH 9.4.; then the plates were washed 3 times and blocked with BSA for 3 hours at 37° C. Subsequently, the plates were incubated overnight at 37° C. with B-cells from either spleen or bone marrow (cultured in RPMI 1640/X-VIVO-15 medium supplemented with 10% fetal calf serum (FCS)) with 1×10^6 to 1×10^3 cells per well. After 12 hours the B-cells were discarded and the plates with the B-cell secreted IgG bound were washed several times (PBS/0.5° A) Tween) before the addition of alkaline phos-phatase conjugated secondary anti-rat IgG (0.3 μg/ml) to detect bound rat IgG. Then the plates were incubated for another 3 hours at 37° C., washed several times with PBS/0.5% Tween, and developed using LMP/BICP 5:1 (1 ml per well; “LMP” means low melting agarose, and “BICP” means 5-bromo-4-chloro-3-indolyl phosphate p-toluidine salt, a blue-colored dye) allowing for a quantification of the blue spots obtained, with each spot representing an antigen-specific IgG secreting spleen or bone-marrow cell.
This finding was confirmed by ELIspot analysis of bone marrow and spleen cell preparations of selected cyclopeptide-treated versus untreated immunized rats (n=3).

[2] = tested on: anti-β1-ECII antibodies; assay: ELISA-competition assay: peptide preincubated with sera/IgG of immunized antibody-positive rats, linear 25AA Cys/Cys-peptide as antigen; format: binding, rat; conditions: for decrease in circulating free anti-beta1-ECII antibodies: n=6 sera (FIG. 11)
In short: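 Rat sera or IgG fractions from immunized anti-β1-ECII antibody-positive rats preincubated 12 h at 4° C (rotating) with linear or cyclic β1-ECII peptides at fold molar excess (1:1 peptide:IgG assumed). Residual binding measured by ELISA on linear 25AA Cys/Cys-peptide antigen, given as % blocked versus non-blocked reactivity.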

[3] = tested on: beta1-receptor antibodies; assay: in vivo prevention study: five prophylactic peptide applications, serum antibody-titers by ELISA; design: species or system rat; conditions: 1.0 mg/kg body weight i.v., 4-weekly, prevention protocol (FIG. 12)
Experimental: FIG. 12 is a diagram resuming the in vivo blocking capacity of in total five (prophylatic) applications of various linear and cyclic beta1-ECII-peptides, started 3 months after the first immunization (and two subsequent beta1-ECII/GST-antigen-boosts, corresponding to a prevention protocol). Serum-titers of the beta1-receptor antibodies were determined before and 18-20 h after each peptide injection (abscissa, time in months) and are given in % of the corresponding antibody-titers of immunized untreated rats (y-axis, ordinate). The injected peptides were: 25AA Cys/Cys linear peptide (black squares), […] (white squares), 18AA Cys/Cys cyclopeptide (black diamond), 18AA Cys/Ser cyclopeptide mutant (white diamonds), and the 18AA Cys/Ser linear peptide mutant (vertically hatched diamonds). […] Black circles indicate antibody-titers of untreated regularly (every 4 weeks) immunized animals serving as reference, set at 100%.
The in-vivo blocking effects of both 25AA and 18AA Cys/Ser mutant cyclopeptides (with a Gln closure site), the 18AA Ser/Cys mutant cyclopeptide, and a mutated linear 18AA Cys/Ser peptide were analyzed after intravenous (i.v.) injection of 1.0 mg/kg body weight (Bw) of each construct into freshly immunized antibody-positive rats (i.e., use of cyclo-peptides in a kind of “prevention” study), with a first cyclopeptide-application 3 months after the initial immunization (and two subsequent boost at months 2 and 3). In total, five prophylactic applications of the various constructs were given at 4-weekly intervals, always two weeks after the monthly continued antigen boost. Sera were drawn 18-20 hours after i.v. injection and assayed for reactivity by ELISA using the 3 Cys-containing linear 25AA Cys/Cys-peptide as an antigen (FIG. 12).

Substance: Cyclo-Ala-Asp-Glu-Ala-Arg-Arg-Cys-Tyr-Asn-Asp-Pro-Lys-Cys-Ser-Asp-Phe-Val-Gln (cyclo(ADEARRCYNDPKCSDFVQ); disulfide 7-13; SMILES CC(C)[C@@H]1NC(=O)[C@H](Cc2ccccc2)NC(=O)[C@H](CC(=O)O)NC(=O)[C@H](CO)NC(=O)[C@@H]2CSSC[C@H](NC(=O)[C@H](CCCNC(=N)N)NC(=O)[C@H](CCCNC(=N)N)NC(=O)[C@H](C)NC(=O)[C@H](CCC(=O)O)NC(=O)[C@H](CC(=O)O)NC(=O)[C@H](C)NC(=O)[C@H](CCC(N)=O)NC1=O)C(=O)N[C@@H](Cc1ccc(O)cc1)C(=O)N[C@@H](CC(N)=O)C(=O)N[C@@H](CC(=O)O)C(=O)N1CCC[C@H]1C(=O)N[C@@H](CCCCN)C(=O)N2) [18AA Cys/Ser mutant (Gln-)cyclopeptide, disulphide bond Cys7-Cys13, ring closure Ala1-Gln18]
- number of specific anti-beta1-ECII antibody-secreting cells (ASC) in spleen and bone marrow [1]: significant decrease
- decrease in circulating free anti-beta1-ECII antibodies ([2]; 8-fold molar excess of peptide): 53%
- decrease in circulating free anti-beta1-ECII antibodies ([2]; 20-fold molar excess of peptide): 66%
- decrease in circulating free anti-beta1-ECII antibodies ([2]; 80-fold molar excess of peptide): about 85%
- blocking-efficiency versus unblocked sera ([2]; n=6 sera, incubation 12-14 h, 4° C., mean ±SEM (FIG. 27)): 60.0±8.3%
- fraction of rat sera blocked by the peptide ([2]; n=69 sera, (Gln-)cyclopeptide mutants (FIG. 10), Cys/Ser = blocked by it alone (n=64), Ser/Cys = sera blocked by both (n=5)): About 93%
- blocking efficiency (% of blocked versus non-blocked ELISA reactivity) ([2]; type1 sera (93%, n=64 of 69), FIG. 9 upper panel, ±SEM): 68±3%
- blocking capacity (% of blocked versus non-blocked ELISA reactivity) ([2]; type 2 sera (7%, n=5 of 69), FIG. 9 lower panel, ±SEM): 50±8%
- antibody-titer decrease after 5 injections, compared with untreated immunized animals [3]: 54.5±2%
